In patent US6503935B1, “Imidazoles and related compounds as α1A agonists” (Abbott Laboratories, priority 1998, dated 2003):
Counter-ions that a name gives are not always drawn. Like-named read-outs stand apart in the source and are kept apart here.

Legend:
α1A (rabbit urethra) = target: T1, α1A (rabbit urethra) (Oryctolagus cuniculus, UniProt O02824); test: Agonist contraction of smooth muscle tissue, rabbit urethra; type: cell-based; settings: rabbit urethra; for EC50: read-out: Agonist Tissue Response (pD2) α1A (rab ureth) (converted)
T1 construct: tested for α1A functional activity using rabbit urethra; from tissue; host or cells: rabbit urethra
T1 sequence (O02824 1-466): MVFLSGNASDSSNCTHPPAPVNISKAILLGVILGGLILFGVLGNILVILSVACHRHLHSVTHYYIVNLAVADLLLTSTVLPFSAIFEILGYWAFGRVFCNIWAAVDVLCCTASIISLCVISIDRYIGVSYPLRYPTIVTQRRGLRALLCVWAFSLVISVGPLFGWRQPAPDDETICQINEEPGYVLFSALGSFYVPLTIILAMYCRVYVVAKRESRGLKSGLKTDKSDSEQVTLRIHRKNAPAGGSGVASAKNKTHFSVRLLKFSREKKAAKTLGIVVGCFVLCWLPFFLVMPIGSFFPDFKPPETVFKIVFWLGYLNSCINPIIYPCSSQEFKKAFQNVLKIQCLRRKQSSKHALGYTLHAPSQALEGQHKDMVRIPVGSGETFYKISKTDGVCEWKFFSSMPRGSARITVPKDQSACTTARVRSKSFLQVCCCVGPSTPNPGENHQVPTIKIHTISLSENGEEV
Description: Most of the compounds were tested for α1A functional activity using rabbit urethra as follows. Female New Zealand white rabbits (2.0-3.5 Kg) were sedated with CO2 and decapitated. […] Subsequent experimental conditions were as described above for the other tissues. Agonist concentration response curves were cumulative except for the vas deferens assay in which the transient response made such measurements impractical.

α1B (rat spleen) = target: T2, α1B (rat spleen) (Rattus norvegicus, UniProt P15823); test: Agonist contraction of smooth muscle tissue, rat spleen; type: cell-based; settings: rat spleen; for EC50: read-out: Agonist Tissue Response (pD2) α1B (rat spleen) (converted)
T2 construct: α1B (rat spleen) and α1D (rat aorta) receptors; from tissue; host or cells: rat spleen
T2 sequence (P15823 1-515): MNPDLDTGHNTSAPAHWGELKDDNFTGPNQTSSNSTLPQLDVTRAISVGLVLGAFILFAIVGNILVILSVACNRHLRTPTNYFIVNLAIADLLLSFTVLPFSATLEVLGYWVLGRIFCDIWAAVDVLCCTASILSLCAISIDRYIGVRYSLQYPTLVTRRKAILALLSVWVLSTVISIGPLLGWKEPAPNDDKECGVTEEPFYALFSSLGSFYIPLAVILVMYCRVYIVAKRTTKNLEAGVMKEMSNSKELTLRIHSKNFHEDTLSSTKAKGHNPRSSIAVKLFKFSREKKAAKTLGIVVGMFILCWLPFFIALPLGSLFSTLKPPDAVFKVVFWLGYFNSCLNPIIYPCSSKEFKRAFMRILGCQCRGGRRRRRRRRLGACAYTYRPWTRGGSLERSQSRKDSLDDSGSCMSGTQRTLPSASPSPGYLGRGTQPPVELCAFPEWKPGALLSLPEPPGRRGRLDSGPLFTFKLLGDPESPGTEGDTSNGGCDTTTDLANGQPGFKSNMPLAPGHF

[1] = target: T3, α1A (rat submaxillary gland) (Rattus norvegicus, UniProt P43140); test: Radioligand binding with [3H]-prazosin, α1A; settings: rat submaxillary gland, [3H]-prazosin
T3 construct: α1A (rat submaxillary gland); from tissue; host or cells: rat submaxillary gland
T3 sequence (P43140 1-466): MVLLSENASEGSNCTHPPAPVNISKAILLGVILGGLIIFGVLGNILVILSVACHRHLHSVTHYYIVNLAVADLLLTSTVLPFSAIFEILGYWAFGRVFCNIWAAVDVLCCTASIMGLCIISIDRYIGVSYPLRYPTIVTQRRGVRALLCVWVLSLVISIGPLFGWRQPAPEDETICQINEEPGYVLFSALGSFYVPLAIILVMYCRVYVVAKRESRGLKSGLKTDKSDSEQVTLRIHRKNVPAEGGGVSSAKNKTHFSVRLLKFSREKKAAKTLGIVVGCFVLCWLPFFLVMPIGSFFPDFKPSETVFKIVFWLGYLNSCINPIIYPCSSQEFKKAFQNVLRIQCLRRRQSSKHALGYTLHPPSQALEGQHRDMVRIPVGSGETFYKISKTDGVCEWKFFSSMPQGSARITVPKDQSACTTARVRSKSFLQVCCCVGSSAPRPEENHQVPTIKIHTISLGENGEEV
Description: (§1) For purposes of discussing α1 adrenoceptor subtypes, the IUPHAR convention of using lower case letters to define molecular clones and upper case letters to indicate pharmacologically defined adrenoceptors has been followed. Compounds of formula I were evaluated in radioligand binding assays specific for α1A (rat submaxillary gland), α1b (hamster receptor expressed in mouse fibroblasts) and α1d (rat receptor expressed in mouse fibroblasts) using [^3H]-prazosin as the radioligand as described in Knepper, et al. J. Pharm.

α1D (rat aorta) = target: T4, α1D (rat aorta) (Rattus norvegicus, UniProt P23944); test: Agonist contraction of smooth muscle tissue, rat aorta; type: cell-based; settings: rat aorta, endothelium removed; for EC50: read-out: Agonist Tissue Response (pD2) α1D (rat aorta) (converted)
T4 construct: α1B (rat spleen) and α1D (rat aorta) receptors; from tissue; host or cells: rat aorta strips, endothelium removed
T4 sequence (P23944 1-561): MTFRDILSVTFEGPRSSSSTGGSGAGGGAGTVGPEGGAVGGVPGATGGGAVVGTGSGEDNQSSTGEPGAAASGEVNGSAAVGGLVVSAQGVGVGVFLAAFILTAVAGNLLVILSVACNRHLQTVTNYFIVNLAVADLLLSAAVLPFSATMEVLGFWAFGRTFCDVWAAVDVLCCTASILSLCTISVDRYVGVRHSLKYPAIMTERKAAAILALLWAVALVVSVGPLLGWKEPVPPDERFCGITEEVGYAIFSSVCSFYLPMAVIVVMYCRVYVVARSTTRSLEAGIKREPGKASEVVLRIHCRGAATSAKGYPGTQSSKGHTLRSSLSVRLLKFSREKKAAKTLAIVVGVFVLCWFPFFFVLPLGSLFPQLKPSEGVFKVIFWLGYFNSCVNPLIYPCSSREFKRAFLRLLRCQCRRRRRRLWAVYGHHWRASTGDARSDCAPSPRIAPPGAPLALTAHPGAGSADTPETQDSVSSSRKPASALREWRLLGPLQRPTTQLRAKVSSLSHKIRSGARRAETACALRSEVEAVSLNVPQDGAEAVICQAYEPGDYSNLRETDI

[2] = target: T5, α1d (rat receptor expressed in mouse fibroblasts) (Rattus norvegicus, UniProt P23944); test: Radioligand binding with [3H]-prazosin, α1d; settings: rat receptor expressed in mouse fibroblasts, [3H]-prazosin
T5 construct: expressed in transfected cells; host or cells: mouse fibroblasts
T5 sequence (P23944 1-561): T4 sequence (P23944 1-561)
Description: as §1

[3] = read-out: Radioligand Binding Ki α1d (Rat)

| Compound | EC50 (α1A (rabbit urethra)) [µM] | Ki [1] [µM] | also measured |
| --- | --- | --- | --- |
| O=S(=O)(CC(F)(F)F)Nc1cccc2c1CCCC2c1c[nH]cn1 (single isomer, unassigned; (-)) [Example 35, (−)-N-[5,6,7,8-tetrahydro-5-(1H-imidazol-4-yl)-1-naphthalenyl]-2,2,2-trifluoroethanesulfonamide] | 81.3 | 2.18 | EC50 (α1B (rat spleen)): > 1000 µM; EC50 (α1D (rat aorta)): > 1000 µM |
| Cc1ccc(NS(C)(=O)=O)c2c1C(c1c[nH]cn1)CCC2 (stereo not drawn) [Example 23, N-[5,6,7,8-tetrahydro-5-(1H-imidazol-4-yl)-4-methyl-1-naphthalenyl]methanesulfonamide, maleate] | 39.8 | 0.391 | Ki [2, 3]: 2.67 µM; EC50 (α1B (rat spleen)): > 1000 µM; EC50 (α1D (rat aorta)): > 1000 µM |
| CS(=O)(=O)Nc1ccc(O)c2c1CCCC2c1c[nH]cn1 (stereo not drawn) [Example 24, N-[5,6,7,8-tetrahydro-4-hydroxy-5-(1H-imidazol-4-yl)-1-naphthalenyl]methanesulfonamide, maleate] | 24.5 | 0.712 | EC50 (α1B (rat spleen)): > 1000 µM; EC50 (α1D (rat aorta)): > 1000 µM |
| CCS(=O)(=O)Nc1ccc(OC)c2c1CCCC2c1c[nH]cn1.O=C(O)C=CC(=O)O (stereo not drawn) [Example 25, maleate] | – | 2.46 | – |
| CCS(=O)(=O)Nc1ccc(OC)c2c1CCCC2c1c[nH]cn1.O=C(O)C=CC(=O)O (stereo not drawn) [Example 25] | – | – | Agonist Tissue Response (pD2) α1A (rab ureth) (α1A (rabbit urethra)): 4.48; Agonist Tissue Response (pD2) α1B (rat spleen) (α1B (rat spleen)): 3.12; Agonist Tissue Response (pD2) α1D (rat aorta) (α1D (rat aorta)): <3.00 |
| O=C(O)C=CC(=O)O.O=S(=O)(Nc1cccc2c1CCCC2c1c[nH]cn1)C1CC1 (stereo not drawn) [Example 27, N-[5,6,7,8-tetrahydro-(1H-imidazol-4-yl)-1-naphthalenyl]cyclopropanesulfonamide, maleate] | – | 0.531 | Agonist Tissue Response (pD2) α1A (rab ureth) (α1A (rabbit urethra)): 5.25; Ki [2, 3]: 2.67 µM |
| CS(=O)(=O)Nc1cccc2c1CCCCC2c1c[nH]cn1 (stereo not drawn) [Example 38, N-[5-(1H-imidazol-4-yl)-6,7,8,9-tetrahydro-5H-benzo[a]cyclohepten-1-yl]methanesulfonamide, maleate] | 19.1 | 1.36 | Ki [2, 3]: 2.54 µM |
| CCS(=O)(=O)Nc1cccc2c1CCCCC2c1c[nH]cn1 (stereo not drawn) [Example 40, N-[5-(1H-imidazol-4-yl)-6,7,8,9-tetrahydro-5H-benzo[a]cyclohepten-1-yl]ethanesulfonamide, maleate] | – | 1.34 | – |
| CCS(=O)(=O)Nc1ccc(Cl)c2c1CCCC2c1c[nH]cn1 (stereo not drawn) [Example 42, N-[4-chloro-5-(1H-imidazol-4-yl)-5,6,7,8-tetrahydro-1-naphthalenyl]ethanesulfonamide, maleate] | > 1000 | 0.359 | Ki ([2]; Radioligand Binding Ki α1d (Rat)): 2.28 µM |
| CS(=O)(=O)Nc1ccc(Cl)c2c1CCCC2c1c[nH]cn1 (stereo not drawn) [Example 43, N-[4-chloro-5-(1H-imidazol-4-yl)-5,6,7,8-tetrahydro-1-naphthalenyl]methanesulfonamide, maleate] | 44.7 | 0.445 | Ki [2, 3]: 2.86 µM; EC50 (α1B (rat spleen)): > 1000 µM; EC50 (α1D (rat aorta)): > 1000 µM |
| CCC(O)(c1cccc(NS(=O)(=O)CC)c1)c1c[nH]cn1 (stereo not drawn) [Example 55, N-[3-(1-hydroxy-1-(1H-imidazol-4-yl)propyl)phenyl]ethanesulfonamide] | – | 3.65 | Ki [2, 3]: 2.34 µM |
| Cc1noc(C)c1S(=O)(=O)Nc1cccc2c1CCCC2c1cnc[nH]1 (stereo not drawn) [Example 61, N-[5-(1H-imidazol-5-yl)-5,6,7,8-tetrahydro-1-naphthalenyl]-3,5-dimethyl-4-isoxazolesulfonamide] | – | 1.56 | – |
| CCCS(=O)(=O)Nc1cccc2c1CCCC2c1c[nH]cn1 (stereo not drawn) [Example 63, N-[5-(1H-imidazol-5-yl)-5,6,7,8-tetrahydro-1-naphthalenyl]-1-propanesulfonamide] | – | 1.72 | – |
| CCCCS(=O)(=O)Nc1cccc2c1CCCC2c1cnc[nH]1 (stereo not drawn) [Example 64, N-[5-(1H-imidazol-5-yl)-5,6,7,8-tetrahydro-1-naphthalenyl]-1-butanesulfonamide] | – | 4.15 | – |
| Cc1ccc(S(=O)(=O)Nc2cccc3c2CCCC3c2cnc[nH]2)cc1 (stereo not drawn) [Example 68, N-[5-(1H-imidazol-5-yl)-5,6,7,8-tetrahydro-1-naphthalenyl]-4-methylbenzenesulfonamide] | – | 5.28 | – |
| Cc1ccccc1S(=O)(=O)Nc1cccc2c1CCCC2c1cnc[nH]1 (stereo not drawn) [Example 69, N-[5-(1H-imidazol-5-yl)-5,6,7,8-tetrahydro-1-naphthalenyl]-2-methylbenzenesulfonamide] | – | 4.47 | – |
| O=S(=O)(Nc1cccc2c1CCCC2c1cnc[nH]1)c1ccc(Cl)s1 (stereo not drawn) [Example 72, 5-Chloro-N-[5-(1H-imidazol-5-yl)-5,6,7,8-tetrahydro-1-naphthalenyl]-2-thiophenesulfonamide] | – | 1.51 | Ki [2, 3]: 2.28 µM |
| Cc1nn(C)c(Cl)c1S(=O)(=O)Nc1cccc2c1CCCC2c1cnc[nH]1 (stereo not drawn) [Example 74, 5-Chloro-N-[5-(1H-imidazol-5-yl)-5,6,7,8-tetrahydro-1-naphthalenyl]-1,3-dimethyl-1H-pyrazole-4-sulfonamide] | – | 5.06 | – |
| CC(=O)Nc1nc(C)c(S(=O)(=O)Nc2cccc3c2CCCC3c2cnc[nH]2)s1 (stereo not drawn) [Example 76, N-[5-({[5-(1H-imidazol-5-yl)-5,6,7,8-tetrahydro-1-naphthalenyl]amino}sulfonyl)-4-methyl-1,3-thiazol-2-yl]acetamide] | – | 3.21 | – |
| O=S(=O)(CC(F)(F)F)Nc1cccc(Cc2c[nH]cn2)c1 [Example 78, 2,2,2-trifluoro-N-[3-(1H-imidazol-4-ylmethyl)phenyl]ethanesulfonamide, maleate] | 8.91 | – | – |
| Methyl 2-({[5-(1H-imidazol-5-yl)-5,6,7,8-tetrahydro-1-naphthalenyl]amino}sulfonyl)-3-thiophenecarboxylate [Example 75] | – | 4.6 | – |
